Results reported in patent US10875875B2, “Propionic acid derivatives and methods of use thereof” (Aviara Pharmaceuticals, Inc., priority 2017, dated 2020).

Target: α4β1 (Homo sapiens, UniProt P05556+P13612)
Assay: α4β1 integrin inhibition, IC50
Assay type: binding
Conditions: read-out: α4β1 IC50

Chain of α4β1 (P13612 34-1032): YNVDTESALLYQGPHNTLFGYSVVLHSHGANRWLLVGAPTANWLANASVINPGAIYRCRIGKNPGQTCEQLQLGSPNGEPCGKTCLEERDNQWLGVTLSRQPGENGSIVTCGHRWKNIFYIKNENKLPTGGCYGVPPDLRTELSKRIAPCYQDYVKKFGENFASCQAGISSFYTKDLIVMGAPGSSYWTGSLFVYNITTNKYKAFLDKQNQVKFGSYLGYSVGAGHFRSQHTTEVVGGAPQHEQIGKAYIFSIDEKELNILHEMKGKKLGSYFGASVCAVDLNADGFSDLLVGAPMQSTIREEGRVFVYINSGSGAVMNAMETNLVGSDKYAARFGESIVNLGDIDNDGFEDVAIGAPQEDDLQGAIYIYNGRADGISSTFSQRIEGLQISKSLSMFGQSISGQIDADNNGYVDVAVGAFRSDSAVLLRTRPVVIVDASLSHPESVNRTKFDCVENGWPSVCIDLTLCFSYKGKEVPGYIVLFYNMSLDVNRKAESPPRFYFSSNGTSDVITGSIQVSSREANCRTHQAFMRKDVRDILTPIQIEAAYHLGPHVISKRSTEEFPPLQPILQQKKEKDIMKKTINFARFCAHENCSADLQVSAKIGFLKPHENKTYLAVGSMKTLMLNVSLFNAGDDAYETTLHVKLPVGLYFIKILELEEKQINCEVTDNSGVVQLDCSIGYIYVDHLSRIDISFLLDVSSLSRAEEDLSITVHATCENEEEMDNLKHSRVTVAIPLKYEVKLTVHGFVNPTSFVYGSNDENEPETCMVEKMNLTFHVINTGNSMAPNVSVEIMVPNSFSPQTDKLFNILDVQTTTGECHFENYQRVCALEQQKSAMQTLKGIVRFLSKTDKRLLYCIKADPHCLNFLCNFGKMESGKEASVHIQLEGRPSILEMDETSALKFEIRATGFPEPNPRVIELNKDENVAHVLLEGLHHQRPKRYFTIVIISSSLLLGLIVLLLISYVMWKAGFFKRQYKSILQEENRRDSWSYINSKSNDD
Chain of α4β1 (P05556 21-798): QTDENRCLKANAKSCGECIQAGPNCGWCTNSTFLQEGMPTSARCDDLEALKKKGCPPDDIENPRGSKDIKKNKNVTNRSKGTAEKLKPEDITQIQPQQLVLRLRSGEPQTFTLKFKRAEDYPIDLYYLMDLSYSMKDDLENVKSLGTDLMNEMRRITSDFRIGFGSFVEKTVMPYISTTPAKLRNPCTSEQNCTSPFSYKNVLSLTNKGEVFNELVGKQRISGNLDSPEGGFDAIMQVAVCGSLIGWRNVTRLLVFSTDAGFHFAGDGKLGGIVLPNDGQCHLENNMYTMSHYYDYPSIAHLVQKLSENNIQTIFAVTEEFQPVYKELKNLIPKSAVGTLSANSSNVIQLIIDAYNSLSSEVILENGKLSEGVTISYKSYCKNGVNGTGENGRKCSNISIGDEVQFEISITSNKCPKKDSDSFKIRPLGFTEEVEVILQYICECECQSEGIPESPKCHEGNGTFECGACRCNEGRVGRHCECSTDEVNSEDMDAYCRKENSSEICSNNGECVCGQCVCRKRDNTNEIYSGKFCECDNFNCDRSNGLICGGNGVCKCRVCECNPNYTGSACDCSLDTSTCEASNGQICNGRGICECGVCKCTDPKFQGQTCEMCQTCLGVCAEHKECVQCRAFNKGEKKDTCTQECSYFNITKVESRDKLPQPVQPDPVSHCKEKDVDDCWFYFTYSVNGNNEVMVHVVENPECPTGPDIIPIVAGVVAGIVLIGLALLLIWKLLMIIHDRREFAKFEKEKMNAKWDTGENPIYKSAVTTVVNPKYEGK

| Structure (SMILES) | IC50 [nM] |
| --- | --- |
| Cc1cn(C)c(=O)c(NC(=O)N[C@@H](CC(=O)O)c2ccc(-c3ccccc3)o2)c1O [1-482, sodium (S)-3-(3-(1,5-dimethyl-4-oxido-2-oxo-1,2-dihydropyridin-3-yl)ureido)-3-(5-phenylfuran-2-yl)propanoate] | < 200 |
| Cc1ccccc1-c1cc([C@H](CC(=O)O)NC(=O)Nc2c(O)cc(C)n(C)c2=O)ccc1F [1-611, sodium (S)-3-(3-(1,6-dimethyl-4-oxido-2-oxo-1,2-dihydropyridin-3-yl)ureido)-3-(6-fluoro-2′-methylbiphenyl-3-yl)propanoate] | < 20 |
| Cc1cn(C)c(=O)c(NC(=O)NC(CC(=O)O)c2cccc(-c3ccc(Cl)cc3Cl)c2)c1O (stereo not drawn) [1-511, sodium 3-(2′,4′-dichlorobiphenyl-3-yl)-3-(3-(1,5-dimethyl-4-oxido-2-oxo-1,2-dihydropyridin-3-yl)ureido)propanoate] | < 200 |
| COc1ccc(-c2cccc([C@H](CC(=O)O)NC(=O)Nc3c(O)c(C)cn(C)c3=O)c2)cn1 [1-476, sodium (S)-3-(3-(1,5-dimethyl-4-oxido-2-oxo-1,2-dihydropyridin-3-yl)ureido)-3-(3-(6-methoxypyridin-3-yl)phenyl)propanoate] | < 20 |
| Cc1cn(C)c(=O)c(NC(=O)NC(CC(=O)O)c2ccc(=O)n(-c3ccccc3)c2)c1O (stereo not drawn) [1-463, sodium 3-(3-(1,5-dimethyl-4-oxido-2-oxo-1,2-dihydropyridin-3-yl)ureido)-3-(6-oxo-1-phenyl-1,6-dihydropyridin-3-yl)propanoate] | < 200 |
| Cc1ccccc1-c1cccc([C@H](CC(=O)O)NC(=O)Nc2c(O)cc(C)n(C)c2=O)c1 [1-599, sodium (S)-3-(3-(1,6-dimethyl-4-oxido-2-oxo-1,2-dihydropyridin-3-yl)ureido)-3-(2′-methylbiphenyl-3-yl)propanoate] | < 20 |
| Cc1cccc(C)c1-c1ccc([C@H](CC(=O)O)NC(=O)Nc2c(O)ccn(C)c2=O)cc1 [1-636, sodium (S)-3-(2′,6′-dimethylbiphenyl-4-yl)-3-(3-(1-methyl-4-oxido-2-oxo-1,2-dihydropyridin-3-yl)ureido)propanoate] | < 200 |
| Cn1ccc(O)c(NC(=O)N[C@@H](CC(=O)O)c2ccc(F)c(-c3c(F)cccc3F)c2)c1=O [1-546, sodium (S)-3-(3-(1-methyl-4-oxido-2-oxo-1,2-dihydropyridin-3-yl)ureido)-3-(2′,6,6′-trifluorobiphenyl-3-yl)propanoate] | < 20 |
| Cc1ccccc1-c1cccc([C@H](CC(=O)O)NC(=O)Nc2c(O)ccn(C)c2=O)c1 [1-598, sodium (S)-3-(3-(1-methyl-4-oxido-2-oxo-1,2-dihydropyridin-3-yl)ureido)-3-(2′-methylbiphenyl-3-yl)propanoate] | < 20 |
| COc1cccc(-c2cc([C@H](CC(=O)O)NC(=O)Nc3c(O)cc(C)n(C)c3=O)ccc2C)c1 [1-569, sodium (S)-3-(3-(1,6-dimethyl-4-oxido-2-oxo-1,2-dihydropyridin-3-yl)ureido)-3-(3′-methoxy-6-methylbiphenyl-3-yl)propanoate] | < 20 |
| Cc1cccc(-c2cccc([C@H](CC(=O)O)NC(=O)Nc3c(O)c(C)cn(C)c3=O)c2)c1 [1-451, sodium (S)-3-(3-(1,5-dimethyl-4-oxido-2-oxo-1,2-dihydropyridin-3-yl)ureido)-3-(3′-methylbiphenyl-3-yl)propanoate] | < 200 |
| COc1cccc(-c2cc([C@H](CC(=O)O)NC(=O)Nc3c(O)ccn(C)c3=O)ccc2C)c1 [1-542, sodium (S)-3-(3′-methoxy-6-methylbiphenyl-3-yl)-3-(3-(1-methyl-4-oxido-2-oxo-1,2-dihydropyridin-3-yl)ureido)propanoate] | < 20 |
| Cn1ccc(O)c(NC(=O)N[C@@H](CC(=O)O)c2cncc(-c3ccccc3)c2)c1=O [1-641, sodium (S)-3-(3-(1-methyl-4-oxido-2-oxo-1,2-dihydropyridin-3-yl)ureido)-3-(5-phenylpyridin-3-yl)propanoate] | < 20 |
| COc1cccc(-c2cc([C@H](CC(=O)O)NC(=O)Nc3c(O)ccn(C)c3=O)ccc2F)c1 [1-547, sodium (S)-3-(6-fluoro-3′-methoxybiphenyl-3-yl)-3-(3-(1-methyl-4-oxido-2-oxo-1,2-dihydropyridin-3-yl)ureido)propanoate] | < 20 |
| Cc1cn(C)c(=O)c(NC(=O)N[C@@H](CC(=O)O)c2cccc(-c3ccc(F)cc3)c2)c1O [1-466, sodium (S)-3-(3-(1,5-dimethyl-4-oxido-2-oxo-1,2-dihydropyridin-3-yl)ureido)-3-(4′-fluorobiphenyl-3-yl)propanoate] | < 20 |
| Cn1ccc(O)c(NC(=O)N[C@@H](CC(=O)O)c2cc(F)cc(-c3ccc(F)cc3F)c2)c1=O [1-633, sodium (S)-3-(3-(1-methyl-4-oxido-2-oxo-1,2-dihydropyridin-3-yl)ureido)-3-(2′,4′,5-trifluorobiphenyl-3-yl)propanoate] | < 20 |
| Cc1cscc1-c1ccc([C@H](CC(=O)O)NC(=O)Nc2c(O)ccn(C)c2=O)s1 [1-584, sodium (S)-3-(4′-methyl-2,3′-bithiophen-5-yl)-3-(3-(1-methyl-4-oxido-2-oxo-1,2-di hydropyridin-3-yl)ureido)propanoate] | < 20 |
| COc1cccc(-c2cccc([C@H](CC(=O)O)NC(=O)Nc3c(O)c(C)cn(C)c3=O)c2)c1 [1-460, sodium (S)-3-(3-(1,5-dimethyl-4-oxido-2-oxo-1,2-dihydropyridin-3-yl)ureido)-3-(3′-methoxybiphenyl-3-yl)propanoate] | < 200 |
| COc1cccc(-c2cc(C)cc([C@H](CC(=O)O)NC(=O)Nc3c(O)cc(C)n(C)c3=O)c2)c1 [1-586, sodium (S)-3-(3-(1,6-dimethyl-4-oxido-2-oxo-1,2-dihydropyridin-3-yl)ureido)-3-(3′-methoxy-5-methylbiphenyl-3-yl)propanoate] | < 20 |
| CCn1cc(C)c(O)c(NC(=O)N[C@@H](CC(=O)O)c2cccc(-c3ccccc3)c2)c1=O [1-438, sodium (S)-3-(biphenyl-3-yl)-3-(3-(1-ethyl-5-methyl-4-oxido-2-oxo-1,2-dihydropyridin-3-yl)ureido)propanoate] | < 200 |
| Cn1ccc(O)c(NC(=O)N[C@@H](CC(=O)O)c2cccc(-c3ccccc3OC(F)(F)F)c2)c1=O [1-512, sodium (S)-3-(3-(1-methyl-4-oxido-2-oxo-1,2-dihydropyridin-3-yl)ureido)-3-(2′-(trifluoromethoxy)biphenyl-3-yl)propanoate] | < 20 |
| Cc1ccccc1-c1ccc([C@H](CC(=O)O)NC(=O)Nc2c(O)ccn(C)c2=O)cc1 [1-616, sodium (S)-3-(3-(1-methyl-4-oxido-2-oxo-1,2-dihydropyridin-3-yl)ureido)-3-(2′-methylbiphenyl-4-yl)propanoate] | < 20 |
| Cc1cn(C)c(=O)c(NC(=O)NC(CC(=O)O)c2cccc(-n3cccc3)c2)c1O (stereo not drawn) [1-445, sodium 3-(3-(1H-pyrrol-1-yl)phenyl)-3-(3-(1,5-dimethyl-4-oxido-2-oxo-1,2-dihydropyridin-3-yl)ureido)propanoate] | < 200 |
| COc1ccc([C@H](CC(=O)O)NC(=O)Nc2c(O)ccn(C)c2=O)cc1-c1ccc(OC(F)(F)F)cc1 [1-536, sodium (S)-3-(6-methoxy-4′-(trifluoromethoxy)biphenyl-3-yl)-3-(3-(1-methyl-4-oxido-2-oxo-1,2-dihydropyridin-3-yl)ureido)propanoate] | < 20 |
